Experiments:
PDE9 = target: T1, PDE9 (Homo sapiens, UniProt O76083); test: PDE9-inhibiting activity (SPA, 3H-cGMP degradation); format: biochemical
T1 construct: made in house
Protocol: The PDE9 used in the present experiment was expressed/purified by the method as in, for example, Guipponi et al., and Fisher et., al. (Fisher, D. A., et al., J. Biol. Chem., 273: pp. 15559-15564 (1998), Guipponi, M., et al., Hum. Genet., 103: pp. 386-392 (1998)).
The PDE9-inhibiting activity was measured by the following method. That is, to a buffer solution containing tris(hydroxymethyl)aminomethane-hydrochloric acid (40 mM, pH 8.0), magnesium chloride (5 mM), and 2-mercaptoethanol (4 mM) were added cGMP (1 μM) and ^3H-cGMP (0.33 μCi/ml) to give a substrate buffer solution. A test substance solution and an enzyme solution which had been adjusted to an optimal concentration were added thereto to perform a reaction at 30° C. The enzyme reaction was stopped by the addition of Scintillation Proximity Assay (SPA) Beads (GE Healthcare, UK) containing 5 mM 3-isobutyl-1-methylxanthine (IBMX). For the enzyme activity, the amount of 5′-GMP, which is a reaction degradation product bound to SPA beads, was measured with a TopCount microplate reader (Hewlett Packard, USA).
The inhibitory rate was calculated by taking the radioactivity of the control containing no test substance as (A), taking the radioactivity of the blank containing no enzyme as (B), and taking the radioactivity of the test substance as (C), and using the following equation. Inhibitory rate=100−{(C)−(B)/(A)−(B)}×100(%)

T1 sequence (O76083 whole entry): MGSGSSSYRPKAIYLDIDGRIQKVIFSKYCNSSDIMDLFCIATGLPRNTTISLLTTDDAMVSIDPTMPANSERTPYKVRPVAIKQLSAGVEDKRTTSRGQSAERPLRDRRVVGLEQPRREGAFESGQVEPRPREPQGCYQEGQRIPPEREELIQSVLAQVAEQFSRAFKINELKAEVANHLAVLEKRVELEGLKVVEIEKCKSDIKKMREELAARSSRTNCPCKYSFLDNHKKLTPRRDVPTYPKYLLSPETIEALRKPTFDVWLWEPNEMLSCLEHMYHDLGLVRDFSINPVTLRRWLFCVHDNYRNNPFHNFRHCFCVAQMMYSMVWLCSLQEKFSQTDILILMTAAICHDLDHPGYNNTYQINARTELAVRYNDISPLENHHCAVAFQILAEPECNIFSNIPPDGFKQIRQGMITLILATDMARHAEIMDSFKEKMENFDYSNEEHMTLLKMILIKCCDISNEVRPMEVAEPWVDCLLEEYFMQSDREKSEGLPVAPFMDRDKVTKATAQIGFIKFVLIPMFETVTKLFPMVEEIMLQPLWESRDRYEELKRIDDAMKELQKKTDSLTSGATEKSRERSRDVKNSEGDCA

SMILES	IC50 (PDE9) [nM]	melting point
Cc1cc2c(cc1C(=O)N1CCc3cc(F)c(Cl)cc31)[nH]c(=O)c1nnc(C3CCCC3)n12.Cl [Example 248]	5.8	276 to 278 °C
Cc1cc2c(cc1C(=O)N1CCc3cc(Cl)ccc31)[nH]c(=O)c1nnc(C(F)C3CC3)n12.Cl (centres unmarked) [Example 11, 7-[(5-chloro-2,3-dihydro-1H-indol-1-yl)carbonyl]-1-[cyclopropyl(fluoro)methyl]-8-methyl[1,2,4]triazolo[4,3-a]quinoxalin-4(5H)-one]	3.1	309 to 311 °C
COCc1cc2c(cc1C(=O)N1CCc3cc(OC)ncc31)[nH]c(=O)c1cnc(C3CCOCC3)n12 [Example 333]	2.9	208 °C (dec.)
COCc1cc2c(cc1C(=O)N1CCc3cc(F)c(F)cc31)[nH]c(=O)c1nnc(C3CCOCC3)n12.Cl [Example 519]	6.8	266 to 269 °C
Cc1cc2c(cc1C(=O)N1CCc3cc(Cl)c(F)cc31)[nH]c(=O)c1nnc(C3CCOCC3)n12 [Example 291]	2.8	309 to 311 °C
O=C(c1ccc2c(c1)[nH]c(=O)c1nnc(-c3ccc(O)cc3)n12)N1CCc2c(Cl)cccc2C1 [Example 4, 7-[(5-chloro-3,4-dihydroisoquinolin-2(1H)-yl)carbonyl]-1-(4-hydroxyphenyl)[1,2,4]triazolo[4,3-a]quinoxalin-4(5H)-one]	19	373 °C (dec.)
Cc1cc2c(cc1C(=O)N1CCc3sccc3C1)[nH]c(=O)c1cnc(C3CCOCC3)n12.Cl [Example 35]	12	283 to 285 °C
CN(C)CCOc1cc2c(cc1C(=O)N1CCc3cc(F)ccc31)[nH]c(=O)c1cnc(C3CCOCC3)n12 [Example 309]	4.1	216 to 219 °C (dec.)
Cc1cc2c(cc1C(=O)N1Cc3ccc(Cl)cc3C1)[nH]c(=O)c1cnc(C3CCOCC3)n12.Cl [Example 103]	11	210 to 214 °C
Cc1cc2c(cc1C(=O)N1Cc3ccccc3C1)[nH]c(=O)c1cnc(C3CCOCC3)n12 [Example 27]	18	312 °C (dec.)
Cc1cc2c(cc1C(=O)N1CCc3cc(Br)cnc31)[nH]c(=O)c1nnc(C3CCOCC3)n12 [Example 306]	4.2	222 to 223 °C
COCc1cc2c(cc1C(=O)N1CCc3ncccc3C1)[nH]c(=O)c1cnc(C3CCOCC3)n12 [Example 350]	9.2	172 to 175 °C
Cc1cc2c(cc1C(=O)N1CC(C)(C)c3cc(Cl)ccc31)[nH]c(=O)c1nnc(C3CCOCC3)n12.Cl [Example 517]	0.9	227 to 230 °C
COCc1cc2c(cc1C(=O)N1CCc3cc(Cl)ccc31)[nH]c(=O)c1nnc(CC3CC3)n12.Cl [Example 522]	3.6	257 °C (dec.)
Cc1cc2c(cc1C(=O)N1CCc3cc(F)ccc31)[nH]c(=O)c1nnc(C3CCC(F)(F)CC3)n12.Cl [Example 13, 1-(4,4-difluorocyclohexyl)-7-[(5-fluoro-2,3-dihydro-1H-indol-1-yl)carbonyl]-8-methyl[1,2,4]triazolo[4,3-a]quinoxalin-4(5H)-one hydrochloride]	22	220 °C (dec.)
COCc1cc2c(cc1C(=O)N1CCc3cc(Cl)ccc31)[nH]c(=O)c1nnc(C3CCOCC3)n12 [Example 347]	3.3	198 to 201 °C
Cl.O=C(c1cc2[nH]c(=O)c3cnc(C4CCOCC4)n3c2cc1C1CC1)N1CCc2cc(Cl)ccc21 [Example 263]	0.9	339 to 342 °C (dec.)
COC(=O)c1cccc2c1CN(C(=O)c1cc3[nH]c(=O)c4cnc(C5CCOCC5)n4c3cc1C)CC2.Cl [Example 68]	3.5	192 to 194 °C
Cc1cc2c(cc1C(=O)N1CCc3cc(Cl)ccc31)[nH]c(=O)c1cnc(C3CCOCC3)n12.Cl [Example 77]	1	265 to 266 °C

Reference: patent publication US8674096B2, “Substituted imidazo[1,5-a]quinoxalin-4-ones as phosphodiesterase 9 inhibitors” (priority 2009, dated 2014)
